ChEMBL document CHEMBL6134835, “Rezatapopt (PC14586): A First-in-Class Small Molecule p53 Y220C Mutant Protein Stabilizer in Clinical Trials” (J Med Chem, 2025)

Columns and labels:
[1] = test system: Cellular tumor antigen p53 (Homo sapiens), P04637 [Y220C]; assay: Reactivation of N-terminal 6xHis-tagged recombinant p53 Y220C mutant (94 to 292 residues) (unknown origin) protein assessed as stabilization of Protein/DNA complex measuring substrate concentration required to increase DNA binding incubated for 48 mins by TR-FRET assay
[2] = Cmax in C57BL/6 mouse at 50 mg/kg, po measured for 24 hrs by LC-MS/MS analysis; type: ADME, organism-based; conditions: in vivo
[3] = AUC (0 to last) in C57BL/6 mouse at 50 mg/kg, po measured for 24 hrs by LC-MS/MS analysis; type: ADME, organism-based; conditions: in vivo
NUGC-3 [4] = assay: Antitumor activity against human NUGC-3 cells xenografted in female Balb/c nude mouse assessed as tumor growth inhibition at 25 mg/kg, po relative to control; type: functional; conditions: read-out: TGI
NUGC-3 [5] = assay: Antitumor activity against human NUGC-3 cells xenografted in female Balb/c nude mouse assessed as tumor growth inhibition at 50 mg/kg, po relative to control; type: functional; conditions: read-out: TGI

SMILES | EC1.5 [1] [µM] | Cmax [2] [ng/mL] | AUC(0-t) at 24 h [3] [µg·h/mL] | inhibition in vivo at 25 mg/kg (NUGC-3 [4]) [%] | inhibition in vivo at 50 mg/kg (NUGC-3 [5]) [%]
CN1CCC(Nc2cccc3c2cc(C#CCNc2ccc(C(C)(C)C#N)nc2)n3CC(F)(F)F)CC1 | 0.054 | – | – | – | –
CCN(CC)C1CCN(Cc2cc(C#CCNc3ccccc3)cc(I)c2O)CC1 | 1.6 | – | – | – | –
CNC(=O)c1ccc(NCC#Cc2cc3c(N[C@@H]4CCN(C)C[C@@H]4F)cccc3n2CC(F)(F)F)c(OC)c1 [REZATAPOPT] | 0.009 | 16600 | 163 | 33 | 71

Continued, in another order:

EC1.5 [1] [µM] | Cmax [2] [ng/mL] | AUC(0-t) at 24 h [3] [µg·h/mL] | SMILES | inhibition in vivo at 25 mg/kg (NUGC-3 [4]) [%] | inhibition in vivo at 50 mg/kg (NUGC-3 [5]) [%]
37.2 | – | – | CCn1c2ccccc2c2cc(CNC)ccc21 | – | –
13.6 | – | – | CCn1c(C#CCNc2ccccc2)cc2cc(CNC)ccc21 | – | –
